Test results reported in patent publication US4558033A, “Potentiation of the effects of insulin by peptides” (Amgen, priority 1983, dated 1985).
No end group written: not given here.

Tests used:
[1] = test system: rats given an intraperitoneal glucose load; assay: Plasma glucose in rats given an intraperitoneal glucose load, DP with and without insulin (Example 2); type: in vivo, Sprague-Dawley rats; conditions: for Plasma Glucose at 60 minutes: i.p. glucose load
Method: (§1) A study was conducted to determine the effect on plasma glucose of deletion peptide, with and without insulin, in rats given an intraperitoneal glucose load. Groups of five male Sprague-Dawley rats were involved in this study. All weighed between 160 to 168 grams and were maintained on standard laboratory diet until 18 hours prior to the test procedures. Test groups of fasted rats received, in rapid succession, 1.0 ml of 0.75 M glucose, 10 mU of insulin in admixture with 1% bovine serum albumin (BSA) in normal saline (pH 7.4), and either 0, 25, 50 or 100 μg doses of deletion peptide. Control groups of rats received glucose and 1% BSA in saline with no insulin but with similarly varying levels of deletion peptide. Plasma glucose determinations were made on blood drawn one hour after administration of test substances and the results (means, ± standard errors) of these determinations are set out in Table I below.

[2] = test system: rats given an intraperitoneal glucose load; assay: Plasma glucose in rats given an intraperitoneal glucose load, increasing insulin doses with and without 100 μg DP (Example 3); type: in vivo; conditions: for Plasma Glucose at 60 minutes: i.p. glucose load
Method: as §1
A study was conducted under the same general procedures as Example 2 to determine the effect of increasing doses of insulin, with and without 100 μg of deletion peptide, on rats given an intraperitoneal glucose load. The results of plasma glucose determinations on blood drawn after 60 minutes are set out below in Table II.

[3] = test system: mice ob/ob, ob/+, db/db, db/m; assay: Plasma glucose after glucose load, fixed insulin and DP doses, normal and genetically abnormal mice (Example 4); type: in vivo; conditions: all animals tested in Example 4 (mice and rats)
Method: A study was conducted to ascertain the effects of fixed amounts of deletion peptide and insulin on various animal models, including rats and normal and genetically abnormal mice.
Animals in test groups of five each were employed in these procedures. Sprague-Dawley rats weighed approximately 200 grams; homozygous genetically abnormal mice (ob/ob and db/db) had weights in the range of 40 to 60 grams; and heterozygous normal mice (ob/+ and db/m) all weighed approximately 25 grams. Glucose was administered intraperitoneally at a dosage of 0.05 ml/10g of a solution containing 135 mg/ml glucose, except for one group of rats which were given an oral dose of glucose comprising 1 ml of 270 mg/ml glucose solution. Insulin was administered at a dose of 0.001 mU/10g and deletion peptide was simultaneously intraperitoneally administered at a dose of 5.0 μg/10g.
The results of plasma glucose determinations performed on blood drawn one hour after administration of test materials are set out in Table III, below.

Rhesus monkeys = assay: Induced hyperglycemia in Rhesus monkeys, plasma glucose over two hours (Example 6); type: in vivo; conditions: at all post-injection times
Method: A study was conducted to determine the effects of deletion peptide on induced hyperglycemia in Rhesus monkeys. Blood samples were taken from normal female monkeys (in three experimental groups of three) five minutes before administration of an oral dose of 3.0 ml/kg of 0.5 g/ml glucose and intramuscular administration of either: (1) 0.5 ml/kg phosphate buffered saline (PBS), pH 7.4; (2) deletion peptide 0.1 ml/kg of 1.0 mg/ml solution in PBS; (3) deletion peptide as above combined with 0.5 ml/kg of 20 mU/ml insulin in PBS; or (4) insulin alone as above. Blood samples were then periodically withdrawn over two hours and analyzed for plasma glucose levels. Plasma glucose level data is set out in Table IV.

normal rats [4] = assay: In vivo glucose metabolism in normal rats
Text: (§2) The present invention has its origins, in part, in the results of an extensive series of controlled experiments designed to study the effects of deletion peptide: (a) on in vivo glucose metabolism in normal rats; (b) on in vivo insulin-stimulated glucose uptake by normal rat liver and skeletal muscle tissue; (c) on growth of hypophysectomized rats; and (d) on in vitro glucose utilization of adipocytes isolated from normal rats.

[5] = test system: normal rat liver and skeletal muscle tissue; assay: In vivo insulin-stimulated glucose uptake by normal rat liver and skeletal muscle tissue; conditions: administration in combination with insulin
Text: as §2

hypophysectomized rats = assay: Growth of hypophysectomized rats; type: in vivo
Text: as §2

[6] = test system: adipocytes isolated from normal rats; assay: In vitro glucose utilization of adipocytes isolated from normal rats; type: cell-based
Text: as §2

[7] = Ongoing studies of deletion peptide biological activities in in vivo systems; conditions: preliminary evidence
Text: The above examples establish that deletion peptide alone has no immediate and direct hypoglyamic effect within the protocols of investigations conducted to date. […] Further, certain of these effects appear to be shared by peptides disclosed and claimed in co-owned, co-pending, concurrently-filed U.S. Patent application Ser. No. 501,024, by the inventor herein and co-inventor Theodore Jones, entitled "Biologically Active Peptides Structurally Related to Regions Within Growth Hormones," the disclosures of which are incorporated by reference herein.

normal dog = conditions: portal infusion 1 μg/kg/min
Method: Two studies were conducted to determine the effects of deletion peptide on dogs.

normal rats [8] = conditions: cited from earlier work
[9] = test system: GT-impaired strain of mice (YS/Wf Nctr); conditions: cited from earlier work
[10] = test system: insulin-stimulated fat cells of older obese rats; conditions: in vitro; cited from earlier work

For “EEAYIPKEQKYSFLQ [DP, NH2 -Glu-Glu-Ala-Tyr-Ile-Pro-Lys-Glu-Gln-Lys-Tyr-Ser-Phe-Leu-Gln-COOH]”, the “Plasma Glucose at 60 minutes” value ([1]; DP 25 μg per rat with 10 mU insulin in 1.0% BSA in saline) was 7.5 ± 0.1 mmol/L, the “Plasma Glucose at 60 minutes” value ([1]; DP 25 μg per rat, 1.0% BSA in saline, no insulin, fasted rats) was 8.1 ± 0.2 mmol/L and the “Plasma Glucose at 60 minutes” value ([1]; DP 50 μg per rat with 10 mU insulin in 1.0% BSA in saline) was 5.7 ± 0.3 mmol/L. For the same sequence, the “Plasma Glucose at 60 minutes” value ([1]; DP 50 μg per rat, 1.0% BSA in saline, no insulin, fasted rats) was 7.7 ± 0.2 mmol/L, the “Plasma Glucose at 60 minutes” value ([1]; DP 100 μg per rat with 10 mU insulin in 1.0% BSA in saline) was 3.5 ± 0.1 mmol/L and the “Plasma Glucose at 60 minutes” value ([1]; DP 100 μg per rat, 1.0% BSA in saline, no insulin, fasted rats) was 8.0 ± 0.4 mmol/L. The effect on glycemia ([1]; deletion peptide alone, up to 100 μg/rat) was “without effect on glycemia”, the hypoglycemic effects ([1]; increasing doses of deletion peptide with 10 mU insulin) was “progressively greater degrees of hypoglycemic effects” and the “effect on plasma glucose” value ([1]; lowest dose of deletion peptide given with a low dose of insulin in BSA) was “small significant decrease in plasma glucose”. For the same sequence, the “Plasma Glucose at 60 minutes” value ([2]; 100 μg DP in 1.0% BSA in saline, 0 mU insulin) was 8.1 ± 0.2 mmol/L, the “Plasma Glucose at 60 minutes” value ([2]; 100 μg DP with insulin 7 mU per rat) was 7.6 ± 0.1 mmol/L and the “Plasma Glucose at 60 minutes” value ([2]; 100 μg DP with insulin 10 mU per rat) was 3.5 ± 0.1 mmol/L. For the same sequence, the “Plasma Glucose at 60 minutes” value ([2]; 100 μg DP with insulin 20 mU per rat) was 3.1 ± 0.1 mmol/L, the “Plasma Glucose at 60 minutes” value ([2]; 100 μg DP with insulin 40 mU per rat) was 2.7 ± 0.1 mmol/L and the hypoglycemia ([2]; deletion peptide in addition to 10 mU insulin) was “significant degree of hypoglycemia”. The “potentiation of hypoglycemic effects of insulin” value ([2]; higher doses of insulin with 100 μg deletion peptide) was “potentiated”, the “potentiation of the hypoglycemic activity of insulin” value [3] was “potentiated the hypoglycemic activity of insulin” and the “potentiation of insulin effects” value (Rhesus monkeys) was “potentiated insulin effects”. For the same sequence, the hepatic glycogen synthesis (normal rats [4]; administered alone) was “small, insulin-like effects in increasing hepatic glycogen synthesis”, the “effects of exogenous insulin” value (normal rats [4]; concurrently administered with exogenous insulin) was “substantially augmented the effects of exogenous insulin” and the hypoglycemic effect (normal rats [4]; deletion peptide alone, normal rats) was “no hypoglycemic effect”. The “incorporation of labelled glucose into liver and skeletal muscle tissue” value [5] was “caused an alteration in the incorporation of labelled glucose”, the growth stimulating effect (hypophysectomized rats) was “no growth stimulating effect” and the “insulin-stimulated glucose uptake by isolated adipocytes” value [6] was “no effect on insulin-stimulated glucose uptake”. The “biological activities in in vivo systems” value [7] was “preliminary evidence of insulin secretory stimulation effects, effects on levels of free fatty acids, and effects on glucose uptake by hepatic and muscle tissue”, the “plasma and hepatic glucose output” value (normal dog) was “minor transient fall” and the glycemic effects (normal dog; over a period of two hours) was “no glycemic effects”. The “late increases in free fatty acids and glycemic effects” value (normal rats [8]) was “did not show either the late increases in free fatty acids nor the glycemic effects”, the glucose tolerance [9] was “unspecified degree of improvement in glucose tolerance” and the “glucose utilization of insulin-stimulated fat cells” value [10] was “in vitro increase in glucose utilization”.
